According to patent publication US11203773B2, “Designer ribosomes and methods of use thereof for incorporating non-standard amino acids into polypeptides” (Yale University, priority 2016, dated 2021):
Like-named read-outs stand apart in the source and are kept apart here.

Legend:
E. coli GluRS [1] = molecular target: T1, E. coli GluRS (Escherichia coli, UniProt P04805); assay: Deacylation assay of [32P]-aminoacyl-tRNA; assay type: biochemical; set-up: made in house; host or cells: E. coli BL21(DE3); conditions: for krev (apparent rate of deacylation): deacylation of aminoacyl-tRNA, GluRS 5.0 μM, 25° C.
T1 sequence (P04805 whole entry): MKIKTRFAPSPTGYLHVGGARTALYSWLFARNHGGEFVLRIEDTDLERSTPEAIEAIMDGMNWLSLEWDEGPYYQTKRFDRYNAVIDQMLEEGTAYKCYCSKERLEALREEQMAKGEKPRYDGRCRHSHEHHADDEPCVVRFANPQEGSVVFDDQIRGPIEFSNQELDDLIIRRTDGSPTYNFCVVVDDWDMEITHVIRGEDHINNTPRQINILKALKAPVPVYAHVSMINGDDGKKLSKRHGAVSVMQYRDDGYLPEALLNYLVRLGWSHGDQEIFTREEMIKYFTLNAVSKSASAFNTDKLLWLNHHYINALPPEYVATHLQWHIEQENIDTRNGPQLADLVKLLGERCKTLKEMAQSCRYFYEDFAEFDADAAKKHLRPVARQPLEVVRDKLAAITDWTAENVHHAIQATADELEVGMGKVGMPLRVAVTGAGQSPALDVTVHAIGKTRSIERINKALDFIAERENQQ
Protocol: (§3) Deacylation assays. Large scale (200 μL) aminoacylation reactions were initiated using the conditions described above (iv). The reactions were allowed to proceed for 1 h at 37° C., after which each reaction mixture was phenol/chloroform extracted. In each case, the aminoacylated tRNA product was ethanol precipitated, and the buffer was exchanged using a micro Bio-Spin 6 column (BioRad) following the procedure specified by the manufacturer and 100 mM HEPES (pH 8.0) containing 100 mM KCl. The precise extent of aminoacylation was calculated using the procedure described above; the 2 μM concentration corresponds to total aminoacylated tRNA. Assays were performed at 25° C. in a 50 μL reaction with 2 μM [^32P]-aminoacyl-tRNA in 100 mM HEPES (pH 7.0) containing 100 mM KCl and 15 mM MgCl2.

E. coli GluRS [2] = molecular target: T1, E. coli GluRS; assay: Aminoacylation of 32P-tRNA with α- and β3-amino acids; assay type: biochemical; set-up: made in house; host or cells: E. coli BL21(DE3)
E. coli GluRS [3] = molecular target: T1, E. coli GluRS; assay: Adenylation of α- and β3-amino acids, pyrophosphate exchange assay; conditions: for kcat (min^−1) or RSA (^32P-ATP formed min^−1 enzyme μM^−1): 25° C., pH 7.0
Protocol: (§4) Adenylation of α- and β-Amino Acids Catalyzed by E. coli PheRS, GlyRS, MetRS, and GluRS. […] Briefly, assay mixtures (50 μL) assembled at 25° C. contained the requisite α- or β^3-amino acid substrate (between 5 μM and 5 mM) in 100 mM HEPES (pH 7.0) containing 100 mM KCl, 15 mM MgCl2, 2 mM ATP, 0.5 mM NaPPi, and 50 μCi [^32P]-NaPPi). Reactions were initiated upon addition of enzyme (10 nM MetRS, 10 nM PheRS, or 50 nM GlyRS; 100 nM GluRS for reactions with α-Glu or 1.13 μM GluRS for reactions with β^3-Glu), incubated for various times (10 sec to 10 min), and halted by adding a 5 μL reaction aliquot to 100 μL quenching solution (10% charcoal, 0.5% HCl). 50 μL of 200 mM NaPPi in 1.5 N HCl was then added to each quenched reaction to decrease nonspecific binding of pyrophosphate to the charcoal. Each quenched reaction was then filtered through Whatman filter paper (number 3), previously washed with washing solution (200 mM NaPPi in 1 N HCl) using a 96-well BIO-DOT® apparatus (BioRad). Each well of the apparatus was then washed four times with 200 μL aliquots of washing solution (by pipetting washing solution up and down at least 10 times per wash) to minimize nonspecific binding of pyrophosphate to charcoal. Each experimental well was paired with an analogous control well (no-enzyme control) that lacked enzyme; a single membrane contained time points for both α- and β^3-amino acid substrates and all no-enzyme controls. The membrane was allowed to dry and was protected with a sheet of Microseal B adhesive seals (Biorad) prior to exposure to a BAS Storage Phosphor screen. Screens were imaged on a Typhoon 9500FLA biomolecule imager and the signal intensity of each dot was quantified using ImageJ to determine the relative amount of [^32P]-ATP formed as a function of time (Ctime). Each raw value were corrected by subtracting the intensity of the dot corresponding to the appropriate no-enzyme control (Cblank) and the resulting corrected values of Ccorr (representing the relative amounts of ^32P-ATP formed) were plotted as a function of time to determine values of relative ^32P-ATP formed per minute. Those values were divided by the concentration of enzyme used, and the data was plotted as relative specific activity (^32P-ATP formed min^−1×μM^−1 enzyme) and fitted using Prism by performing nonlinear regression using the least squares method and Equation 1 to obtain RSA (relative specific activity) and KM values (Equation 1 and Table 2).
(§5) In Equation 1, v is the apparent relative specific activity (relative ^32P-ATP formed per minute) obtained at each substrate concentration divided by the enzyme concentration, RSA is the relative specific activity, S is the concentration of substrate, and KM is the Michaelis-Menten constant.

E. coli MetRS [4] = molecular target: T2, E. coli MetRS (Escherichia coli, UniProt P00959)
T2 sequence (P00959 whole entry): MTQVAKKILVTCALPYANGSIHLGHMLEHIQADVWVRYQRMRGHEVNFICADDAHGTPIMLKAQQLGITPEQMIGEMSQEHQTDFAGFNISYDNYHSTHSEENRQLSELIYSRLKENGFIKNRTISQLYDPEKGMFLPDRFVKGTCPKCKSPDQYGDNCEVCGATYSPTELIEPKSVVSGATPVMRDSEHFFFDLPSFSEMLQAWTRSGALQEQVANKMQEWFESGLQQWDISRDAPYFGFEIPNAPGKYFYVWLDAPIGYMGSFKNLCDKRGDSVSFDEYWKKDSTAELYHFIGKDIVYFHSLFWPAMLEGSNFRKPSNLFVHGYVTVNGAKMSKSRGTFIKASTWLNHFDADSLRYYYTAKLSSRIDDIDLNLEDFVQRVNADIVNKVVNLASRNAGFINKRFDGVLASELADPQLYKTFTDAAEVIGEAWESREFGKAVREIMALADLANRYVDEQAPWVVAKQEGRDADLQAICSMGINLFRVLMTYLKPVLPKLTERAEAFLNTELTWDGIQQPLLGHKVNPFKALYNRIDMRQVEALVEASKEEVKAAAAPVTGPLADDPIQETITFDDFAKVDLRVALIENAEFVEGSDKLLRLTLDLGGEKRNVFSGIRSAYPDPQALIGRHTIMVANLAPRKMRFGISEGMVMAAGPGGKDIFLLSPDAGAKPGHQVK
Protocol: Aminoacylation of α- and β^3-amino acids. All tRNAs were prepared for aminoacylation by heating ^32P-tRNA (in 100 mM HEPES (pH 7.0)) to 95° C. for 3 min, and adding sufficient aminoacylation buffer (100 mM HEPES (pH 7.0), 100 mM KCl, 15 mM MgCl2) to ensure [^32P-tRNA]=4 μM. This tRNA mixture was allowed to cool at RT for 30 min. […] Equal volumes of the tRNA and amino acid mix were combined, and enzyme was added to initiate the reaction. The final concentration of tRNA after mixing was 2 μM. Reactions were quenched at various time points by mixing 1 μL of the reaction mixture with 4 μL of P1 (Sigma) or S1 (Invitrogen) nuclease solution (0.5 U/μL final prepared from a 10 U/μL stock solution in 10 mM NaOAc (pH 5.0). PEI cellulose TLC plates were run as previously described (Ledoux, et al., Methods, 44:74 (2008)), exposed to a BAS Storage Phosphor Screen, and imaged using a Typhoon FLA9500 biomolecule imager. The intensity of each band was quantified using ImageJ. The sum of the intensities of the bands corresponding to [^32P]-AMP (IAMP) and aminoacyl-[^32P]-AMP (IAA) was set equal to 2 μM, and the concentration of aminoacylated-tRNA at each time point and each enzyme concentration (μM product formed, x) calculated from the equation x=[(IAA×2 μM)/(IAA+IAMP)]. The increase in aminoacyl-^32P-AMP over time was divided by the amount of enzyme used, plotted as a function of substrate concentration and fitted to a hyperbolic equation to obtain kcat and KM values, using Equation 1 and Prism as described for the adenylation reactions. For all aminoacylation reactions, kcat has units of reciprocal time (min^−1).

E. coli MetRS [5] = molecular target: T2, E. coli MetRS; conditions: for kcat (min^−1) or RSA (^32P-ATP formed min^−1 enzyme μM^−1): 25° C., pH 7.0
Protocol: as §4, §5

E. coli MetRS [6] = molecular target: T2, E. coli MetRS; conditions: for krev (apparent rate of deacylation): deacylation of aminoacyl-tRNA, MetRS 500 nM, 25° C.
Protocol: as §3

E. coli PheRS [7] = molecular target: T3, E. coli PheRS (Escherichia coli, UniProt P08312); assay: Aminoacylation of 32P-tRNA with α- and β3-amino acids; assay type: biochemical; set-up: made in house; host or cells: E. coli BL21(DE3); conditions: for kcat: 2 μM tRNA
T3 sequence (P08312 whole entry): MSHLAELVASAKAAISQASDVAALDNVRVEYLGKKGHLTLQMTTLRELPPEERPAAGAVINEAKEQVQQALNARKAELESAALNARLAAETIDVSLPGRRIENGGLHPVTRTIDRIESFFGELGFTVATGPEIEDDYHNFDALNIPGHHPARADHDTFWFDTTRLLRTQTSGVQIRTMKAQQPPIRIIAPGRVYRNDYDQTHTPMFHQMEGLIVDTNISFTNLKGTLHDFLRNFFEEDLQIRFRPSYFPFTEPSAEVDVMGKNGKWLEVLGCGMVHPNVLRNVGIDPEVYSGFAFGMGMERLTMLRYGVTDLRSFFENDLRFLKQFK
T3 sequence (P07395 whole entry partner): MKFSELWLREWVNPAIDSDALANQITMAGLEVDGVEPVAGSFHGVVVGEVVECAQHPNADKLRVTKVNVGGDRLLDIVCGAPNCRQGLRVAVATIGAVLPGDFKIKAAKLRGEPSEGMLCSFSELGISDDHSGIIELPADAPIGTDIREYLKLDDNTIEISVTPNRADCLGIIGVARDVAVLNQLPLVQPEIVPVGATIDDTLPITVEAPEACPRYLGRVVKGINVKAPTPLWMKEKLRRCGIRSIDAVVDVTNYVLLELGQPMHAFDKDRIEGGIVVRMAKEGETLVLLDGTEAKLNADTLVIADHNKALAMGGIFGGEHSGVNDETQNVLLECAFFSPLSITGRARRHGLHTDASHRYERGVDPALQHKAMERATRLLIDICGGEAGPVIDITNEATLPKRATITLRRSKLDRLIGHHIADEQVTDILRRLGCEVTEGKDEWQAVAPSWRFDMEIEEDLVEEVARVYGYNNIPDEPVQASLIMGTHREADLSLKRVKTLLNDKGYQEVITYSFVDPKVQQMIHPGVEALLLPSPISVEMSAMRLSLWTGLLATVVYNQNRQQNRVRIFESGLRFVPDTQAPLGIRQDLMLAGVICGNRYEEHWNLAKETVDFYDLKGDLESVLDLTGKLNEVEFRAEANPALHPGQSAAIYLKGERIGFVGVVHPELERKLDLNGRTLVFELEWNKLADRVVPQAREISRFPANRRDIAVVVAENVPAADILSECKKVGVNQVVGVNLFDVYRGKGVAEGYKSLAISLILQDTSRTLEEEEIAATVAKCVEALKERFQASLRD

[8] = test system: BL21(DE3) cells expressing P7A7 ribosomes along with WT ribosomes; assay: Expression of DHFR in 19/20 minimal media supplemented with amino acid (SDS-PAGE); assay type: cell-based, E. coli; conditions: media supplemented with 1 mM of the amino acid
From the text: (§1) To evaluate the extent of in vivo β^3-amino acid incorporation, BL21 (DE3) cells were co-transformed via electroporation (vide infra) with two plasmids. […] The other plasmid encoded either the WT rrnb sequence (pLK35-rrnb), the 040329 mutant reported by Hecht (pLK35-040329.rrnb), or the P7A7 mutant (pLK35-P7A7.rrnb) identified during the puromycin sensitivity screen described above.
(§2) ii. β^3-amino acid incorporation. The subsequent protocol for in vivo β^3-amino acid incorporation employed minimal media and was adapted from procedures reported by Tirrell and Cropp (Liu, et al., Bioorg Med Chem Lett, 20:5613 (2010); Mandavi, et al., J Am Chem Soc, 135:2979 (2013)). Briefly, all 5 mL of the co-transformed cells prepared as described above were diluted into 100 mL of LB containing 50 ng/mL of kanamycin and […] of carbenicillin and grown to OD600=1.0, spun down, and then resuspended in 1/10th the original volume of 19/20 minimal media (10.5 g/L M9 salts, 0.1 mM CaCl2, 1 mM MgSO4, 1% glycerol, 100 μM of each amino acid (minus α-Phe), 25 mg/L thiamine, […] carbenicillin, 30 ng/mL kanamycin, 1 mM IPTG) supplemented with 1 mM of α-Phe or a β^3-Phe analog. Cells were grown overnight (18 h) at 37° C. while shaking (200 rpm). The cells were harvested by centrifugation (10 min at 4000×g) and resuspended in lysis buffer (50 mM NaH2PO4, 300 mM NaCl, 10 mM imidazole (pH 8.0)). Lysis was performed by sonication (Branson Sonifier 250) with 5 cycles of 20 s on, 20 s off. Lysed cells were then centrifuged for 20 min at 15000×g. The clarified cell lysate was incubated with Ni-NTA resin (Qiagen) for 1 h while gently rotating at 4° C. The Ni-NTA column was washed with lysis buffer prior to eluting proteins with elution buffer (50 mM NaH2PO4, 300 mM NaCl, 300 mM imidazole (pH 8.0)). Elutions were analyzed with SDS-PAGE to prepare material for in-gel trypsin digestions. Controls included side-by-side growths in (1) unsupplemented 19/20 minimal media, which contains only low levels of α-Phe present (negative control); (2). 19/20 minimal media supplemented with 1 mM α-Phe (positive control) and (3) and 19/20 minimal media supplemented with 1 mM β^3-Gly (negative control; β^3-aa that is not a β^3-Phe analog).

[9] = test system: BL21(DE3) cells expressing only WT ribosomes; assay: as above; assay type: cell-based, E. coli
From the text: as §1, §2

[10] = test system: BL21(DE3) cells expressing 040329 ribosomes along with WT ribosomes; assay: as above; assay type: cell-based, E. coli; conditions: 040329 + WT ribosomes, media supplemented with 1 mM of the amino acid
From the text: as §1, §2

E. coli PheRS [11] = molecular target: T3, E. coli PheRS; assay: Deacylation assay of [32P]-aminoacyl-tRNA; assay type: biochemical; set-up: made in house; host or cells: E. coli BL21(DE3); conditions: for krev (apparent rate of deacylation): deacylation of aminoacyl-tRNA, PheRS 500 nM, 25° C.
Protocol: as §3

E. coli PheRS [12] = molecular target: T3, E. coli PheRS; assay: Adenylation of α- and β3-amino acids, pyrophosphate exchange assay; conditions: for kcat (min^−1) or RSA (^32P-ATP formed min^−1 enzyme μM^−1): 25° C., pH 7.0
Protocol: as §4, §5

E. coli TyrRS [13] = molecular target: T4, E. coli TyrRS (Escherichia coli, UniProt P0AGJ9); assay: Deacylation assay of [32P]-aminoacyl-tRNA; assay type: biochemical; conditions: for krev (apparent rate of deacylation): deacylation of aminoacyl-tRNA, TyrRS 1 μM, 25° C.
T4 construct: made in house; host or cells: E. coli BL21(DE3)
T4 sequence (P0AGJ9 1-424): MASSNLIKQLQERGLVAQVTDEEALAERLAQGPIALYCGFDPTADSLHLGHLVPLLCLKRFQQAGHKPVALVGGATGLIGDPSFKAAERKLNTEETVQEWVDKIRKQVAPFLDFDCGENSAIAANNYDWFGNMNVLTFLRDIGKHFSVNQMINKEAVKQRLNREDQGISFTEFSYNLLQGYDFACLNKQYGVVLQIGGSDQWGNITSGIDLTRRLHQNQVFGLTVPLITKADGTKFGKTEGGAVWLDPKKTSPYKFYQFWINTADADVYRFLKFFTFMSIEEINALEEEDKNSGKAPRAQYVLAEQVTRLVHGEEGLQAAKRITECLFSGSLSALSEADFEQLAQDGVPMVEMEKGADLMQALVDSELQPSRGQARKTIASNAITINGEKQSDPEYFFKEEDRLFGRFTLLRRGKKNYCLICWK
Protocol: as §3

E. coli TyrRS [14] = molecular target: T4, E. coli TyrRS; assay: Aminoacylation of 32P-tRNA with α- and β3-amino acids; assay type: biochemical
E. coli TyrRS [15] = molecular target: T4, E. coli TyrRS; assay: Adenylation of α- and β-Tyr, coupled MESG/PNP pyrophosphate release assay; assay type: biochemical
From the text: ii. Adenylation of α- and β-Tyr catalyzed by E. coli TyrRS. These reactions were monitored spectrophotometrically in a coupled assay using inorganic pyrophosphatase, 2-amino-6-mercapto-7-methylpurine ribonucleoside (MESG), and purine nucleoside phosphorylase (PNP) to monitor the rate of pyrophosphate release, according to the manufacturer's instructions (Enzcheck Pyrophosphate assay kit, Thermo Fisher Scientific). The assay measures the increase in absorbance at 360 nm due to MESG phosphorolysis, and two molecules of MESG are consumed per pyrophosphate generated. This direct assay could be employed for TyrRS because the rate of ATP hydrolysis (in the absence of amino acid substrate) was insignificant, which was not the case for the other synthetases which therefore required the more laborious pyrophosphate exchange assay described above. […] For TyrRS, kcat is the turnover number (units of reciprocal time) since the change in absorbance can be directly correlated to concentration of pyrophosphate formed.

[16] = test system: DHFR position 128 translated in E. coli BL21 (DE3); assay: Spectral counting (LC-MS/MS of tryptic peptides) of β3-(p-Br)Phe and α-Phe incorporation into DHFR in vivo; assay type: cell-based; conditions: spectral counting
From the text: as §1
as §2, with “19/20 minimal media supplemented with 1 mM α-Phe (positive control) and (3) and 19/20 minimal media supplemented with 1 mM β^3-Gly (negative control; β^3-aa that is not a β^3-Phe analog).” left out

## N[C@@H](CCC(=O)O)C(=O)O [α-Glu, Glutamic Acid]
E. coli GluRS [1]
  krev (apparent rate of deacylation): 0.32 ± 0.14 min⁻¹
E. coli GluRS [1]; deacylation, GluRS
  Ratio (α/β) of krev: 0.73 ± 0.42
E. coli GluRS [2]
  Ratio (α/β) of KM: 0.94 ± 0.60
  Ratio (α/β) of kcat: 61.2 ± 9.1
  Ratio (α/β) of kcat/KM: 82.78 ± 68.2
E. coli GluRS [3]
  Ratio (α-/β-) of KM: 0.35 ± 0.27
  Ratio (α-/β-) of RSA: 31.6 ± 6.4
  Ratio (α-/β-) of kcat/KM: 89.0 ± 70^
  kcat (min^−1) or RSA (^32P-ATP formed min^−1 enzyme μM^−1): 1349 ± 206 ^32P-ATP formed min^−1 enzyme μM^−1

## CSCC[C@H](N)C(=O)O [α-Met, Methionine]
E. coli MetRS [4]; aminoacylation
  Ratio (α/β) of KM: 0.40 ± 0.18
  Ratio (α/β) of kcat: 6.8 ± 1.3
  Ratio (α/β) of kcat/KM: 17.0 ± 8.5
E. coli MetRS [4]; complete aminoacylation reaction
  preference (kcat/KM) for α-Met over β^3-Met: 19 fold
E. coli MetRS [5]; adenylation
  Ratio (α-/β-) of KM: 0.70 ± 0.5
  Ratio (α-/β-) of RSA: 1.4 ± 0.2
  Ratio (α-/β-) of kcat/KM: 1.98 ± 1.5
  kcat (min^−1) or RSA (^32P-ATP formed min^−1 enzyme μM^−1): 430 ± 38 ^32P-ATP formed min^−1 enzyme μM^−1
E. coli MetRS [5]; adenylation phase
  preference for α-Met over β^3-Met: 2 fold
E. coli MetRS [6]
  krev (apparent rate of deacylation): 2.1 ± 1.7 min⁻¹
E. coli MetRS [6]; deacylation, MetRS
  Ratio (α/β) of krev: 0.52 ± 0.49

## N[C@@H](Cc1ccccc1)C(=O)O [α-Phe, Phenylalanine]
E. coli PheRS [7]
  Ratio (α/β) of KM: 1.7 ± 0.9
  Ratio (α/β) of kcat: 3.7 ± 0.7
  Ratio (α/β) of kcat/KM: 2.2 ± 1.3
  kcat: 0.0143 ± 0.00183 s⁻¹
[8]
  level of DHFR: lower levels
[9]; α-Phe added
  level of DHFR, higher than trace amounts: approximately 8 fold
[10]
  level of DHFR: significant levels
E. coli PheRS [11]
  krev (apparent rate of deacylation): 0.15 ± 0.008 min⁻¹
E. coli PheRS [11]; deacylation, PheRS
  Ratio (α/β) of krev: 0.49 ± 0.05
E. coli PheRS [12]
  Ratio (α-/β-) of KM: 0.18 ± 0.11
  Ratio (α-/β-) of RSA: 1.4 ± 0.3
  Ratio (α-/β-) of kcat/KM: 8.06 ± 5.63
  kcat (min^−1) or RSA (^32P-ATP formed min^−1 enzyme μM^−1): 59.1 ± 7.1 ^32P-ATP formed min^−1 enzyme μM^−1

## N[C@@H](Cc1ccc(O)cc1)C(=O)O [α-Tyr, Tyrosine]
E. coli TyrRS [13]
  krev (apparent rate of deacylation): 1.9 ± 1.3 min⁻¹
E. coli TyrRS [13]; deacylation, TyrRS
  Ratio (α/β) of krev: 1.01 ± 0.75
E. coli TyrRS [14]
  Ratio (α/β) of kcat: 56.3 ± 6.8
  Ratio (α/β) of kcat/KM: 1541.7 ± 724.3
E. coli TyrRS [15]
  Ratio (α-/β-) of KM: 0.047 ± 0.03
  Ratio (α-/β-) of kcat: 46.2 ± 7.7
  Ratio (α-/β-) of kcat/KM: 972.6 ± 632.0

## NC(CCC(=O)O)CC(=O)O (stereo not drawn) [β-Glu, β^3-glutamic acid]
E. coli GluRS [1]
  krev (apparent rate of deacylation): 0.43 ± 0.15 min⁻¹
E. coli GluRS [2]
  Km: 375 ± 271 µM
E. coli GluRS [2]; 2 μM tRNA
  kcat: 1.25e-05 ± 1.5e-06 s⁻¹
E. coli GluRS [3]
  Km: 215 ± 110 µM
  kcat (min^−1) or RSA (^32P-ATP formed min^−1 enzyme μM^−1): 42.7 ± 5.8 ^32P-ATP formed min^−1 enzyme μM^−1

## CSCCC(N)CC(=O)O (stereo not drawn) [β-Met, β^3-methionine]
E. coli MetRS [4]; aminoacylation
  Km: 609 ± 243 µM
E. coli MetRS [4]; aminoacylation, 2 μM tRNA
  kcat: 0.0035 ± 0.0005 s⁻¹
E. coli MetRS [5]; adenylation
  Km: 33.4 ± 22 µM
  kcat (min^−1) or RSA (^32P-ATP formed min^−1 enzyme μM^−1): 310 ± 47 ^32P-ATP formed min^−1 enzyme μM^−1
E. coli MetRS [6]
  krev (apparent rate of deacylation): 4.0 ± 1.8 min⁻¹

## NC(CC(=O)O)Cc1ccccc1 (stereo not drawn) [β-Phe, β^3-phenylalanine]
E. coli PheRS [7]
  Km: 119 ± 51.5 µM
  kcat: 0.004 ± 0.0005 s⁻¹
E. coli PheRS [11]
  krev (apparent rate of deacylation): 0.32 ± 0.03 min⁻¹
E. coli PheRS [12]
  Km: 300 ± 137 µM
  kcat (min^−1) or RSA (^32P-ATP formed min^−1 enzyme μM^−1): 41.6 ± 6.8 ^32P-ATP formed min^−1 enzyme μM^−1

## NC(CC(=O)O)Cc1ccc(O)cc1 (stereo not drawn) [β-Tyr, β^3-tyrosine]
E. coli TyrRS [13]
  krev (apparent rate of deacylation): 1.9 ± 0.6 min⁻¹
E. coli TyrRS [14]
  Km: 340 ± 80.3 µM
E. coli TyrRS [14]; 2 μM tRNA
  kcat: 0.0208 ± 0.012 s⁻¹
E. coli TyrRS [15]
  Km: 450 µM
E. coli TyrRS [15]; kcat (turnover number)
  kcat (min^−1) or RSA (^32P-ATP formed min^−1 enzyme μM^−1): 0.027 ± 0.001 min⁻¹

## NC(CC(=O)O)Cc1ccc(Br)cc1 (stereo not drawn) [β^3-(p-Br)Phe]
[8]
  level of DHFR: highest levels
[9]; 19/20 minimal media supplemented with 1 mM of the amino acid
  amount of DHFR generated: trace amounts
[10]
  level of DHFR: significant levels
[16]; cells expressing 040329 ribosomes
  lower incorporation of β^3-(p-Br)Phe relative to α-Phe: 30 fold
[16]; cells expressing P7A7 ribosomes
  lower incorporation of β^3-(p-Br)Phe relative to α-Phe: 10 fold
